The values below come from a melting point compilation (Tetko et al.; mined from patent text by program, amines drawn as free bases though some values may be those of a salt).

For orientation: melting point means the temperature, or range, at which the solid turns liquid.

A value given as a limit tells only on which side of the number the result lay.

Compound `CC(C)(CO)NS(=O)(=O)c1cccc(NC(=O)c2cnn3c(C(F)(F)F)cc(-c4ccc(C(F)(F)F)c(F)c4)nc23)c1` had a melting point of 221 °C.
For the compound `CCOC(=O)Cc1c2n(c3ccc(F)cc13)C(c1ccc(SC)cc1)=NCC2`, the melting point fell in the range of 119 to 120 °C.
`Nc1cccc(-n2c(=O)c(CCC(O)c3ccncc3)cc3cccnc32)c1` (configuration not stated) displayed a melting point of 209 to 211 °C.
The compound `COc1ccc(C(C)=C2SCCCS2)cc1C(=O)O` showed a melting point of 130 to 132 °C.
As to `CC1(C)CCC(C)(C)c2c1ccc(C=Nc1ccc(C(=O)O)c(O)c1)c2N`, the melting point lay in the range of 209 to 210 °C.
For `C=CCc1cc(O)c(CC=C)c(C=NO)c1O`, the melting point is 241 to 243 °C.
`CC(=O)NC1=NN(c2ccccc2)C(C)C1` (configuration not stated) gave a melting point of 144 to 146 °C.
The same measure for `Cc1ccc(N2CCOCC2)c(NC(N)=S)c1`: 181 to 182 °C; for `Cc1ccc(CC(=O)NC(NC(=NC#N)Nc2cccnc2C)C(C)(C)C)cc1F` (configuration not stated): 75 to 77 °C.
For `O=P(O)(CCCNCc1cc(Cl)cc(Cl)c1)CC1CCCCC1`, the melting point fell in the range of 231 to 233 °C.
The same measure for `CN(CCO)c1ccncc1`: 90 to 91 °C.
The same measure for `C[C@@H](N1CC(=O)N(c2ccc(OC(F)(F)C(F)F)cc2)CC1=O)[C@@]1(c2ccc(F)cc2F)CO1`: 168 to 170 °C; for `O=C1c2cc(Cl)ccc2-n2c1nc1ccccc1c2=O`: 295 to 296 °C.
To `CCOC(=O)c1cn2c3c(c(-c4ccccc4)c(F)cc3c1=O)OCC2C` (configuration not stated) belongs 270 to 272 °C.
Compound `COC(=O)CCCc1cc2nc(Cl)ccc2n1S(=O)(=O)c1cccc(C(C)C)c1` returned a melting point of 92 °C.
The same measure for `CCCc1c(OCCCOc2ccc(CC(=O)OC)cc2Br)ccc(C(C)=O)c1O`: 91 to 92 °C; for `CC#CC1(O)CCC2C3CCC4=CC(=O)CCC4C3CCC21CCC` (configuration not stated): 182 to 184 °C.
In the case of `CCN1C(=O)C(N(CC(F)(F)C(F)(F)F)C(=O)C(C)C(N)=O)COc2ccccc21` (configuration not stated), the melting point worked out at 152 °C.
For `Cc1cc(OCCNC(=O)C2Cc3ccccc3N2S(=O)(=O)c2ccc(-c3ccccc3C(F)(F)F)cc2)ccc1CC(=O)O` (configuration not stated), the melting point is 85 to 95 °C.
The same measure for `O=C(NCCO)c1cccc(-c2cccc3nc(Cc4cccc(C(F)(F)F)c4)oc23)c1`: 122 to 123 °C; for `COc1cc2c(cc1OC)-c1ncc(C(N)=O)c(=O)n1CC2`: 313 to 315 °C.
The same measure for `CCCc1nn(-c2ccc(C(F)(F)F)cn2)cc1CCC(=O)OCC`: 73 to 74 °C; for `CC(C)(C)[N+]([O-])=Cc1ccc(S(N)(=O)=O)cc1`: 219 °C; for `O=C(Nc1cc(C(F)(F)F)cc(C(F)(F)F)c1)[C@H]1CC=CC[C@H]1C(=O)O` (relative stereo): 166 to 167 °C.
To `CC1(C)OC(=O)Nc2ccc(-c3ccc(F)c(C#N)c3)cc21` belongs 255 to 256 °C; to `O=C(O)Cc1cccc(OCc2ccc3oc([N+](=O)[O-])c(-c4ccccc4)c3c2)c1`, 144 to 145 °C.
As to `Cc1cc(-n2ncc(-c3ccc(S(C)(=O)=O)cc3)c(-c3ccc(F)cc3)c2=O)ccc1F`, the melting point fell in the range of 168 to 170 °C.
`Nc1cccc2c1C(=O)N([C@@H]1CCC(=O)NC1=O)C2=O` had a melting point of 308 to 310 °C.
`CCCNC(=O)C1(CCCCN2CCC(N3Cc4ccccc4C3=O)CC2)C(c2ccccc2)=Cc2ccccc21` (configuration not stated) had a melting point of 156 to 157 °C.
The same measure for `CCCCOc1cc(C(=O)NCCCN2CCCCC2)cc(S(N)(=O)=O)c1Cc1ccccc1`: 138 °C.
To `CCOC(=O)Oc1ccc(C(=O)OCCN2CCN(CCN3CCOCC3)CC2)cc1` belongs 85 to 87 °C.
The same measure for `CN1CCN(Cc2nnc(S)n2Cc2cc(F)cc(F)c2)CC1`: 200 to 201 °C; for `Cc1c(-c2ccc(C(F)(F)F)cc2)n(Cc2ccc(OCCBr)cc2)c2ccc(OCc3ccccc3)cc12`: 106 to 109 °C.
In turn, `CC(C)c1nc(-n2cnc3ccccc32)sc1/C=C/C(=O)O` returned a melting point of 262 to 264 °C.
With `N#CC(c1ccccn1)c1cccs1` (configuration not stated), the melting point lay in the range of 48 to 50 °C.
In the case of `Clc1ccc2c(c1)N=C1C=CC=CN1CO2`, the melting point fell in the range of 175 to 177 °C.
The same measure for `O=[N+]([O-])c1ccc(C=CS(=O)(=O)N=C(Cl)c2ccccc2)cc1`: 168 to 175 °C; for `O=CCCOc1ccc(CC2SC(=O)NC2=O)cc1` (configuration not stated): 48 to 51 °C.
Turning to `Cc1ccc(Oc2ccncc2[N+](=O)[O-])cn1`, the melting point lay within 87 to 90 °C.
For `CCNCC1CN(c2c(F)cc3c(=O)c(C(=O)O)cn(C4CC4)c3c2F)CCO1` (configuration not stated), the melting point lay within 210 to 213 °C.
The same measure for `COC(=O)c1ccc2cc(CCCCCc3cc4ccc(C(=O)OC)cc4o3)oc2c1`: 83 to 85 °C; for `CCOC(=O)C(=O)Nc1nc2c(OC)ccc(-c3ccccc3)c2s1`: 138 to 142 °C; for `C[C@]1(CN2CCC(OCCCc3ccc(Cl)cc3)CC2)Cn2cc([N+](=O)[O-])nc2O1`: 88.8 to 91.9 °C.
To `CNC(=O)ON=C1N=C(C)C(C)(C)S1` belongs 123 to 125 °C.
The same measure for `COC(=O)c1cc(-c2ccc(OC)c(OC)c2)nc2ccc(Br)cc12`: 154 °C.
Consider `COc1ccc2c(c1)CCN(CCc1ccc(NC(=O)c3cccc4c(=O)c5cccc(OC)c5[nH]c34)cc1)C2`, for which the melting point was 260 °C.
The same measure for `CCc1ccc(C(O)COc2ccc(CC3SC(=O)NC3=O)cc2)nc1` (configuration not stated): 129 to 130 °C; for `Cc1ccc(S(=O)C(C(=O)OC(C)(C)C)C(O)CC(OC2CCCCO2)c2ccc(Oc3ccccc3)cc2)cc1` (configuration not stated): 140 to 145 °C.
For the compound `CC(=O)Nc1cccc(-c2ccc3nncn3n2)c1`, the melting point is 248 to 250 °C.
The same measure for `COc1ncccc1NC(=O)C1(O)CCCn2c1nc(-c1ccncn1)cc2=O` (racemic): 208 to 210 °C.
`CSc1c(C(C)C(=O)O)n(Cc2ccc(Cl)cc2)c2ccc(F)cc12` (configuration not stated) showed a melting point of 136 to 140 °C.
To `O=C(Nc1ccc(F)cc1)Nc1nc(Nc2ccc(Cl)cc2)sc1C(=O)c1ccc(Cl)cc1Cl` belongs over 280 °C; to `CCc1nccn1N=Cc1ccccc1`, 67 to 68 °C; to `Cc1nc(N2CCN(Cc3ccc4nonc4c3)C2=O)sc1C(=O)NCc1cccnc1`, 110 to 112 °C.
As for `CCc1nc(-c2cc3cc(OCCNC[C@H](O)COc4ccccc4)ccc3o2)no1`, the melting point lay in the range of 97 to 98 °C.
`CSc1nc(NC(=O)NS(=O)(=O)c2ccccc2C(=O)OC(C)C)nn1C` gave a melting point of 192 to 194 °C.
Compound `C=C1CC(C)(O)CCC2=C(C)CCC12` (configuration not stated) registered a melting point of 54 °C.
To `O=C(O)CCc1cn(Cc2ccc(OCc3ccsc3)cc2)cc1-c1ccccc1` belongs 118 to 119 °C; to `COc1ccc2c(c1)OC1(O)c3ccccc3C(=O)C21O` (configuration not stated), 98 to 100 °C; to `O=C(Cl)c1ccccc1Nc1cccc([N+](=O)[O-])c1`, 141 to 145 °C.
To `CCOCCn1c(NC2CCN(CCO)CC2)nc2cccnc21` belongs 94.3 °C; to `CCn1c(CC(=O)NOCc2ccccc2)nc2cc(F)c(N3CCN(C)CC3)cc21`, 165 to 168 °C.
Take `Cc1c(NC(=O)C(CSC(=O)c2ccco2)Cc2ccccc2)cccc1C(=O)O` (configuration not stated): the melting point is 113 to 116 °C.
The same measure for `CCCCCCC(=O)N1C(C)Cc2ccccc2C1CNC(=O)c1cc(OC)c(OC)c(OC)c1` (configuration not stated): 161 to 163 °C.
The same measure for `COc1ccc(C(=O)c2ccccc2)c(O)c1Cc1cc(C)cc(-n2nc3ccccc3n2)c1O`: 206 to 209 °C.
The same measure for `COc1ccc(Sc2nc(-c3ccccc3)n(Cc3cc4c(cc3Cl)OCO4)c2C=O)cc1`: 116 °C; for `Cn1cc(-c2cc3cccnc3[nH]2)c2cc(OCCCO)ccc21`: 192 to 193 °C; for `COCc1cnc2c(NC(=O)c3c(Cl)cccc3Cl)cccc2c1N1CCN(C)C1=O`: 199 to 201 °C.
The compound `CCOC(=O)c1ccc2c(c1)OC(CCCBr)C(=O)N2` (configuration not stated) had a melting point of 118 to 119 °C.
`c1cnc2c(c1)NCCCC2` showed a melting point of 70 to 71 °C.
`CCCCCCCCCC(=O)N[C@@H](C)C(=O)N[C@@H](Cc1ccccc1)C(=O)OC`: the melting point was in the range of 120 to 122 °C.
The same measure for `Cn1c2ccccc2c2cc(C(=O)O)sc21`: 179 to 180 °C; for `c1ccc(COc2ccc(-c3cocn3)cc2)cc1`: 101 to 102 °C.
`Cc1ccc(-c2nn(C(C)(C)C(=O)N(C)C)cc2C)c(C)c1` gave a melting point of 110 to 112 °C.
To `COc1cccc(S(=O)(=O)c2ccc3c(c2)c(CCNC(=O)OC(C)(C)C)c(C)n3C)c1` belongs 115 to 122 °C.
To `O=C(O)COc1cc2c(=O)c3ccccc3oc2cc1Cl` belongs 237 to 238 °C.
The same measure for `COC(=O)C(Cc1c[nH]c2ccccc12)NCOC(C)[Si](C)(C)C` (racemic): 113 to 115 °C; for `CS(=O)(=O)Nc1ccc2c(c1)S(=O)(=O)NC1CCCN21` (configuration not stated): 177 to 180 °C.
`Nc1nc(-c2ccccc2)c(-c2ccc(=O)n(Cc3ccccc3)n2)s1` yielded a melting point of 225 to 228 °C.
To `COc1cc(O)c([N+](=O)[O-])cc1C(F)(F)F` belongs 77 to 78 °C; to `CN(O)C(=O)NCCc1ccc2c(c1)OCO2`, 99 to 100 °C.
The same measure for `Cc1nc2sc(Cl)cn2c(=O)c1O`: 214 to 217 °C; for `CCCCCCCCCCCCS(=O)(=O)C(C#N)=C1C=C(N2CCCC2)CC(C)(C)C1`: 114 to 115 °C.
To `CSC1=NC(=O)C(=Cc2cccc(-c3cc(F)c(O)c(C45CC6CC(CC(C6)C4)C5)c3)c2)S1` belongs 270 to 271 °C.
`O=C(O)CCc1conc1-c1ccc(Cl)cc1` displayed a melting point of 149 to 150 °C.
The same measure for `COc1ccc2c(c1)C(C)(C)[C@H]1CCCN(C(C)=O)[C@H]1C2` (relative stereo): 81 to 85 °C; for `CCCCc1nc(C(=O)CC)c(C#N)[nH]1`: 84 to 85 °C.
